Data from publication PMC4421842 (Nature Communications, 2015).
Values after ≈ are worked out from the molar mass of the structure shown. Values joined by “and” are separate entries in the source; they are usually repeats but may differ in a detail not shown here. Equal values may be shown once. Read-outs that look alike come from different tables or passages of the source.

How the values were obtained:
E. coli = experiment: microbe, parasite or virus in culture; format: cell-based; details: Escherichia coli
Excerpt: (§1) MRSA and P. aeruginosa isolates were from Cubist Pharmaceuticals (Lexington, MA). VRE isolates were from a previously published collection. E. coli strains were obtained either from ATCC or Professor Cari Vanderpool (UIUC). A. baumannii isolates were obtained from Dr John Quale[51].
(§2) Mueller Hinton (MH) broth was used.

E. faecium = experiment: microbe, parasite or virus in culture; format: cell-based; details: Enterococcus faecium, E. faecium
[1] = Pharmacokinetic assessment; format: in vivo, C57BL/6 mice; details: for Cmax: read-out: Cmax (peak serum concentration)
Procedure: (§3) The animal studies (PK, in-vivo toxicity and in-vivo efficacy) were carried out in strict accordance with the recommendations in the Guide for the Care and Use of Laboratory Animals of the National Institutes of Health. […] In these studies, 10- to 12-week-old female C57BL/6 mice purchased from Charles River were used. DNM, DNM-2 and DNM-3 were formulated as slurries at 8.3 mg ml^−1 in 25% Cremophor RH40/water (v/v). Before beginning the pharmacokinetic assessment, mice were first tested for their ability to tolerate the DNM, DNM-2 and DNM-3 at 50 mg kg^−1 (p.o.). […] At specified time points, mice were killed and blood was collected, centrifuged and the serum was frozen at −80 °C until analysis. The proteins in a 50-μl aliquot of serum were precipitated by the addition of 50 μl of acetonitrile and the sample was centrifuged to remove the proteins. Serum concentrations of DNM, DNM-2 and DNM-3 were determined by HPLC. PK parameters were determined using GraphPad Prism Version 5.00 for Windows.

E. faecalis = experiment: microbe, parasite or virus in culture; format: cell-based; details: Enterococcus faecalis, E. faecalis
A. baumannii = experiment: MIC, microdilution broth, A. baumannii; format: cell-based; details: Acinetobacter baumannii
Excerpt: as §1, §2

S. aureus (ATCC 29213) = experiment: Resistant mutant generation (resistance frequency); format: cell-based; details: low-level CIP-resistant strain 29213-C1
physchem = details: pH 7.4
Procedure: Three independent replicates of each compound were performed.

[2] = Tolerability in mice (maximal tolerated dose); format: in vivo
Procedure: as §3

MRSA clinical isolates = experiment: microbe, parasite or virus in culture; format: cell-based, S. aureus; details: for MIC: Staphylococcus aureus, MRSA, read-out: MIC
Procedure: as §1
Susceptibility testing was performed in triplicate, using the microdilution broth method as outlined by the Clinical and Laboratory Standards Institute[52]. Mueller Hinton (MH) broth was used.

S83R E. coli DNA gyrase = molecular target: T1, S83R E. coli DNA gyrase (Escherichia coli, UniProt P0AES4+P0AES6, S83R); format: biochemical; details: DNA cleavage assay
T1 construct: His tag (pTRCHisA vector; purified on Ni-NTA); made in house; host or cells: E. coli One Shot BL21 Star (DE3)

WT E. coli DNA gyrase = molecular target: T2, WT E. coli DNA gyrase (Escherichia coli, UniProt P0AES4+P0AES6); format: biochemical; details: DNA cleavage assay
T2 construct: His tag (pTRCHisA vector; purified on Ni-NTA); made in house; host or cells: E. coli One Shot BL21 Star (DE3)

[3] = tested on: WT S. aureus (ATCC 29213, WT); experiment: microbe, parasite or virus in culture; format: cell-based; details: WT GyrA and WT ParC, three independent replicates
P. aeruginosa = experiment: MIC, microdilution broth, P. aeruginosa; format: cell-based
Excerpt: as §1, §2

[4] = tested on: resistant strains of ATCC 29213; experiment: microbe, parasite or virus in culture; format: cell-based, S. aureus
VRE clinical isolates = experiment: MIC, VRE clinical isolates panel (summary by GyrA mutation); format: cell-based, Enterococcus; details: panel of VRE clinical isolates (n=22)
Excerpt: as §1, §2

Ent. Spp. = experiment: MIC, microdilution broth, Ent. Spp. VRE clinical isolate; format: cell-based; details: Enterococcus, C28036, gyrA Ser83Ile, parC Ser80Ile
Excerpt: as §1, §2

[5] = female, C57BL/6, mouse, in vivo, C57/BL6 mice, 50 mg kg-1 oral gavage, serum

SMILES: CCn1c(=O)cc(C)c2cc3c(C)cc(=O)n4c3c(c21)OC4 [DNM-2]
- MIC (E. coli; ATCC25922, E. coli ATCC 25922, gyrA none, parC none): > 24 µg/mL
- MIC (E. coli; MG1655, E. coli MG1655): > 24 µg/mL
- MIC (E. coli; MG1655, E. coli MG1655 ∆AcrB (permeabilized strain)): 2 µg/mL (≈ 6.75 µM)
- MIC (E. faecium; C21190, gyrA Ser83 Arg, parC Ser80Ile): 8 µg/mL (≈ 27 µM)
- MIC (E. faecium; C27282, gyrA Ser83 Arg, parC Ser80Arg): 4 µg/mL (≈ 13.5 µM)
- MIC (E. faecium; C27569, gyrA Ser83Ile, parC Ser80Ile): 0.25 µg/mL (≈ 0.844 µM)
- MIC (E. faecium; D1, gyrA Ser83Ile, parC Ser80Ile): 0.5 µg/mL (≈ 1.69 µM)
- MIC (E. faecium; S34, gyrA Ser83Ile, parC Ser80 Arg): 1 µg/mL (≈ 3.37 µM)
- MIC (E. faecium; S51, gyrA Ser83Ile, parC Ser80Ile): 0.5 µg/mL (≈ 1.69 µM)
- MIC (E. faecium; S122, gyrA Ser83Ile, parC Ser80Ile): 0.5 µg/mL (≈ 1.69 µM)
- MIC (E. faecium; S226, gyrA Ser83Ile, parC Ser80Ile): 0.5 µg/mL (≈ 1.69 µM)
- MIC (E. faecium; S235, gyrA Ser83Ile, parC Ser80Ile): 0.5 µg/mL (≈ 1.69 µM)
- MIC (E. faecium; S344, gyrA Ser83Ile, parC Ser80Ile): 0.5 µg/mL (≈ 1.69 µM)
- MIC (E. faecium; S557, gyrA Ser83Ile, parC Ser80Ile): 0.25 µg/mL (≈ 0.844 µM)
- MIC (E. faecium; SL152, gyrA Ser83Ile, parC Ser80Ile): 0.5 µg/mL (≈ 1.69 µM)
- MIC (E. faecium; U63, gyrA Ser83 Arg, parC Ser80Ile): 4 µg/mL (≈ 13.5 µM)
- MIC (E. faecium; U275, gyrA Ser83Cys Glu87Gly, parC Ser80Ile): 2 µg/mL (≈ 6.75 µM)
- MIC (E. faecium; U464, gyrA Ser83 Arg, parC Ser80Ile): 2 µg/mL (≈ 6.75 µM)
- MIC (E. faecium; U503, gyrA Ser83 Arg, parC Ser80Ile): 4 µg/mL (≈ 13.5 µM)
- MIC (E. faecium; U563, gyrA Ser83 Arg, parC Ser80Ile): 2 µg/mL (≈ 6.75 µM)
- AUC [1, 5]: 44000 ng·h/mL
- Tmax [1, 5]: 1.2 h
- half-life [1, 5]: 0.9 h
- Cmax ([1]; female, C57BL/6, mouse, in vivo, mice, 50 mg kg^−1 oral dose, serum): 42.6 µM
- Cmax ([1]; female, C57BL/6, mouse, mice, 50 mg kg^−1 oral dose, serum): 12800 ng/mL and ~50 µM
- oral bioavailability / serum exposure ([1]; mice, 50 mg kg^−1 oral dose): good bioavailability
- area under the curve ([1]; mice, 50 mg kg^−1 oral dose, serum): 44000 ng·h/mL
- MIC (E. faecalis; ATCC19433, ATCC 19433, gyrA WT, parC WT): 8 µg/mL (≈ 27 µM)
- MIC (E. faecalis; ATCC29212, ATCC 29212, gyrA WT, parC WT): 8 µg/mL (≈ 27 µM)
- MIC (E. faecalis; C21667, gyrA Ser83Ile, parC Ser80Ile): 0.5 µg/mL (≈ 1.69 µM)
- MIC (E. faecalis; S206, gyrA Ser83 Arg, parC Ser80Ile): 2 µg/mL (≈ 6.75 µM)
- MIC (A. baumannii): > 24 µg/mL
- MIC (A. baumannii; ATCC19606, A. baumannii ATCC 19606, read-out: MIC): > 24 µg/mL
- resistant colonies on treatment (S. aureus (ATCC 29213)): resistant colonies were observed
- solubility at 1 h (physchem): 121 µM (≈ 35.9 µg/mL)
- tolerability ([2]; increasing doses, highest dose evaluated 50 mg kg^−1 by oral gavage): well tolerated up to the highest dose evaluated
- maximal tolerated dose ([2]; oral gavage): > 50 mg/kg
- MIC (MRSA clinical isolates; strain SAU.1118): 2 µg/mL (≈ 6.75 µM)
- MIC (MRSA clinical isolates; strain SAU.2996): 0.5 µg/mL (≈ 1.69 µM)
- MIC (MRSA clinical isolates; strain SAU.3017): 4 µg/mL (≈ 13.5 µM)
- MIC (MRSA clinical isolates; strain SAU.3021): 0.063 µg/mL (≈ 0.213 µM)
- MIC (MRSA clinical isolates; strain SAU.3024): 0.125 µg/mL (≈ 0.422 µM)
- MIC (MRSA clinical isolates; strain SAU.3025): 0.063 µg/mL (≈ 0.213 µM)
- MIC (MRSA clinical isolates; strain SAU.42): 2 µg/mL (≈ 6.75 µM)
- MIC (MRSA clinical isolates; strain SAU.555): 0.25 µg/mL (≈ 0.844 µM)
- MIC (MRSA clinical isolates; strain SAU.669): 0.063 µg/mL (≈ 0.213 µM)
- MIC (MRSA clinical isolates; strain SAU.846): 0.25 µg/mL (≈ 0.844 µM)
- Sensitivity of MRSA clinical isolates (MRSA clinical isolates; panel of MRSA clinical isolates (n=21)): sensitive
- inhibition of S83R DNA gyrase (S83R E. coli DNA gyrase): buildup of OC DNA similar to that seen with S83L DNA gyrase only at a slightly higher concentration or longer time points
- inhibition of WT DNA gyrase (increase in L or OC DNA) (WT E. coli DNA gyrase): poor inhibitors of WT DNA gyrase
- MIC against S. aureus 29213 ([3]; ATCC 29213): 8 µg/mL (≈ 27 µM)
- MIC ([3]; Staphylococcus aureus, ATCC29213, ATCC 29213, read-out: MIC against S. aureus 29213): 8 µg/mL (≈ 27 µM)
- MIC (P. aeruginosa; PA1586 (CIP resistant clinical isolate)): > 24 µg/mL
- MIC (P. aeruginosa; Pseudomonas aeruginosa, P. aeruginosa PAO1, read-out: MIC): > 24 µg/mL
- MIC (P. aeruginosa; Pseudomonas aeruginosa, read-out: MIC): > 24 µg/mL
- MIC ([4]; Staphylococcus aureus, ATCC29213, high-level CIP-resistant strains, second step, S84L mutation in GyrA): 0.06 to 0.12 µg/mL (≈ 0.202 to 0.405 µM)
- MIC ([4]; low-level CIP-resistant strains, first step, WT gyrA, mutation in ParC (for example E84K or S80F)): not sensitive
- Sensitivity of VRE clinical isolates (VRE clinical isolates): sensitive
- MIC (Ent. Spp.): 0.5 µg/mL (≈ 1.69 µM)
